# Source: patent publication US9999222B2, “Herbicidal combination comprising azines” (BASF SE, priority 2014, dated 2018)
# Several values for one entry are separate records, joined by “and”; a condition that tells them apart may be missing. Equal values may be shown once.
# Experiments:
# Experiment in all cases: Greenhouse test, pre-emergence treatment
# SETFA = type: in vivo, Setaria faberi; settings: 20 DAT
# Procedure, shortened: (§1)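 Damage was rated on a 0-100 scale, with 100 meaning no emergence or full destruction of aerial parts. Observed combination effects were set against the additive Colby expectation E=X+Y−(X·Y/100). Spray liquor was water-based, from 10% emulsion concentrates, applied pre-emergence right after sowing in loamy sand (about 3.0% humus). Plants were held at 10-25 °C or 20-35 °C for 2 to 4 weeks.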
# ECHCG = type: in vivo, Echinocloa crus-galli; settings: Echinochloa crus-galli, 480 h, 20 DAT, read-out: observed % activity 20 DAT
# Procedure, shortened: as §1
# KCHSC = type: in vivo, Kochia scoparia; settings: pre-emergence, 20 DAT
# Procedure, shortened: as §1
# POLCO = type: in vivo, Polygonum convolvulus; settings: pre-emergence, 20 DAT
# Procedure, shortened: as §1
# LOLMU = type: in vivo, Lolium multiflorum; settings: Lolium multiflorum, pre-emergence, 480 h, pre-emergence, 20 DAT, read-out: observed % activity 20 DAT
# Procedure, shortened: as §1
# GERPU = type: in vivo, Geranium pusillum; settings: Geranium pusillum, pre-emergence, 480 h, pre-emergence, 20 DAT, read-out: observed % activity 20 DAT
# Procedure, shortened: as §1
# PHACA = type: in vivo, Phalaris canariensis; settings: Phalaris canariensis, pre-emergence, 480 h, pre-emergence, 20 DAT, read-out: observed % activity 20 DAT
# Description: The culture containers used were plastic flowerpots containing loamy sand with approximately 3.0% of humus as the substrate. The seeds of the test plants were sown separately for each species.
# For the pre-emergence treatment, the active ingredients, which had been suspended or emulsified in water, were applied directly after sowing by means of finely distributing nozzles. The containers were irrigated gently to promote germination and growth and subsequently covered with transparent plastic hoods until the plants had rooted. This cover caused uniform germination of the test plants, unless this had been impaired by the active ingredients.
# Depending on the species, the plants were kept at 10-25° C. or 20-35° C., respectively.
# The test period extended over 2 to 4 weeks. During this time, the plants were tended, and their response to the individual treatments was evaluated.
# Evaluation was carried out using a scale from 0 to 100. 100 means no emergence of the plants, or complete destruction of at least the aerial moieties, and 0 means no damage, or normal course of growth. A moderate herbicidal activity is given at values of at least 60, a good herbicidal activity is given at values of at least 70, and a very good herbicidal activity is given at values of at least 85.
# The respective stated components a and b, and if appropriate, c were formulated as a 10% by weight strength emulsion concentrate and, with addition of the amount of solvent system, introduced into the spray liquor used for applying the active compound.
# In the examples, the solvent used was water.
# In the examples below, using the method of S. R. Colby (1967) “Calculating synergistic and antagonistic responses of herbicide combinations”, Weeds 15, p. 22ff., the value E, which is expected if the activity of the individual active compounds is only additive, was calculated. E=X+Y−(X·Y/100) where • X=percent activity using active compound a at an application rate A; • Y=percent activity using active compound b at an application rate B; • E=expected activity (in %) by a+b at application rates A+B.
# If the value found experimentally is higher than the value E calculated according to Colby, a synergistic effect is present.
# ALOMY = type: in vivo, Alopecurus myosuroides; settings: pre-emergence, pre-emergence, 20 DAT
# Procedure, shortened: as §1
structure (smiles),measurement,setting,value
"CC(C)(F)c1nc(N)nc(Nc2c(F)c(F)cc(F)c2F)n1 [compound 2, 6-(1-Fluoro-1-methyl-ethyl)-N4-(2,3,5,6-tetrafluorophenyl)-1,3,5-triazine-2,4-diamine]",inhibition at 1 g/ha,"SETFA; Setaria faberi, 480 h, SETFA, use rate 1 g ai/ha, read-out: observed % activity 20 DAT",80%
same,inhibition at 2 g/ha,"SETFA; Setaria faberi, 480 h, SETFA, use rate 2 g ai/ha, read-out: observed % activity 20 DAT",95%
same,inhibition at 4 g/ha,"SETFA; Setaria faberi, 480 h, SETFA, use rate 4 g ai/ha, read-out: observed % activity 20 DAT",95%
same,observed % activity 20 DAT,SETFA; use rate 2 g ai/ha,75% and 65%
same,inhibition at 1 g/ha,"ECHCG; ECHCG, use rate 1 g ai/ha",65%
same,inhibition at 2 g/ha,"ECHCG; ECHCG, use rate 2 g ai/ha",98%
same,pest or weed control at 1 g/ha,ECHCG; use rate 1 g ai/ha,65%
same,pest or weed control at 1 g/ha,"KCHSC; Bassia scoparia, 480 h, use rate 1 g ai/ha, read-out: observed % activity 20 DAT",0%
same,pest or weed control at 2 g/ha,"KCHSC; Bassia scoparia, 480 h, use rate 2 g ai/ha, read-out: observed % activity 20 DAT",50%
same,inhibition at 1 g/ha,"KCHSC; Bassia scoparia, 480 h, KCHSC, use rate 1 g ai/ha, read-out: observed % activity 20 DAT",45%
same,inhibition at 2 g/ha,"KCHSC; Bassia scoparia, 480 h, KCHSC, use rate 2 g ai/ha, read-out: observed % activity 20 DAT",80%
same,inhibition at 4 g/ha,"KCHSC; Bassia scoparia, 480 h, KCHSC, use rate 4 g ai/ha, read-out: observed % activity 20 DAT",90%
same,inhibition at 8 g/ha,"KCHSC; Bassia scoparia, 480 h, KCHSC, use rate 8 g ai/ha, read-out: observed % activity 20 DAT",80%
same,observed % activity 20 DAT,"KCHSC; KCHSC, use rate 8 g ai/ha",95%
same,pest or weed control at 1 g/ha,"POLCO; Fallopia convolvulus, 480 h, use rate 1 g ai/ha, read-out: observed % activity 20 DAT",60%
same,pest or weed control at 2 g/ha,"POLCO; Fallopia convolvulus, 480 h, use rate 2 g ai/ha, read-out: observed % activity 20 DAT",70%
same,inhibition at 2 g/ha,"POLCO; Fallopia convolvulus, 480 h, POLCO, use rate 2 g ai/ha, read-out: observed % activity 20 DAT",70%
same,inhibition at 4 g/ha,"POLCO; Fallopia convolvulus, 480 h, POLCO, use rate 4 g ai/ha, read-out: observed % activity 20 DAT",95%
same,observed % activity 20 DAT,"POLCO; POLCO, use rate 1 g ai/ha",15%
same,inhibition at 1 g/ha,"LOLMU; LOLMU, use rate 1 g ai/ha",40%
same,inhibition at 2 g/ha,"LOLMU; LOLMU, use rate 2 g ai/ha",80%
same,inhibition at 4 g/ha,"LOLMU; LOLMU, use rate 4 g ai/ha",95%
same,pest or weed control at 1 g/ha,LOLMU; use rate 1 g ai/ha,20%
same,pest or weed control at 2 g/ha,LOLMU; use rate 2 g ai/ha,80%
same,pest or weed control at 4 g/ha,LOLMU; use rate 4 g ai/ha,95%
same,pest or weed control at 1 g/ha,GERPU; use rate 1 g ai/ha,0%
same,pest or weed control at 2 g/ha,GERPU; use rate 2 g ai/ha,0%
same,inhibition at 1 g/ha,"PHACA; PHACA, use rate 1 g ai/ha",20%
same,inhibition at 2 g/ha,"PHACA; PHACA, use rate 2 g ai/ha",70%
same,pest or weed control at 1 g/ha,PHACA; use rate 1 g ai/ha,20%
same,pest or weed control at 4 g/ha,PHACA; use rate 4 g ai/ha,95%
same,pest or weed control at 8 g/ha,PHACA; use rate 8 g ai/ha,85%
same,inhibition at 1 g/ha,"ALOMY; Alopecurus myosuroides, 480 h, ALOMY, use rate 1 g ai/ha, read-out: observed % activity 20 DAT",60%
same,inhibition at 2 g/ha,"ALOMY; Alopecurus myosuroides, 480 h, ALOMY, use rate 2 g ai/ha, read-out: observed % activity 20 DAT",70%
same,inhibition at 4 g/ha,"ALOMY; Alopecurus myosuroides, 480 h, ALOMY, use rate 4 g ai/ha, read-out: observed % activity 20 DAT",90%
same,pest or weed control at 1 g/ha,"ALOMY; Alopecurus myosuroides, 480 h, use rate 1 g ai/ha, read-out: observed % activity 20 DAT",45%
same,pest or weed control at 2 g/ha,"ALOMY; Alopecurus myosuroides, 480 h, use rate 2 g ai/ha, read-out: observed % activity 20 DAT",75%
same,pest or weed control at 4 g/ha,"ALOMY; Alopecurus myosuroides, 480 h, use rate 4 g ai/ha, read-out: observed % activity 20 DAT",90%
same,observed % activity 20 DAT,"ALOMY; ALOMY, use rate 4 g ai/ha",95%
same,observed % activity 20 DAT,"ALOMY; ALOMY, use rate 8 g ai/ha",50% and 80% and 95%
